Where two headings read alike, the source gives them in different places.
Tests used:
[1] = target: T1, aldose reductase from human placenta (Homo sapiens, UniProt P15121); experiment: Aldose reductase inhibition (in vitro study); type: biochemical; conditions: for inhibition at 1 µM: 10^-6 M; for inhibition at 0.1 µM: 10^-7 M
T1 construct: Partially purified aldose reductase from human placenta; from tissue; host or cells: human placenta
Source text: 1. Aldose reductase inhibition (in vitro study)
Partially purified aldose reductase from human placenta was used for the test of aldose reductase inhibitory effect according to the method of S. Hayman et al. described in Journal of Biological Chemistry, 240, 877 (1965) or the method of J. H. Kinoshita et al. described in Metabolism, 28, Supplement 1, 462 (1979).

[2] = test system: sorbitol accumulation in sciatic nerves of streptozocin diabetic rats; experiment: Inhibition of sorbitol accumulation in the tissue of experimentally induced diabetic rat; type: in vivo, rat (Spraque-Dawley); conditions: for sorbitol accumulation: sciatic nerve, untreated control group = 100; for inhibition of sorbitol accumulation in vivo compared with control compounds (in words): vs control compounds A, B, C
Experimental: Spraque-Dawley rats (male, 5-7-week-old, 5 animals per group) were fasted for 18 hours, and received injection of 70 mg/kg of streptozocin (Cal Biochem Co.) into the caudal vein under anesthesia with ether, so that diabetic rats were obtained. From immediately after the injection of streptozocin these rats were given orally the test compound of 50 mg/kg or 30 mg/kg in the form of 5% gum arabic suspension twice a day (at 10 a.m. and 5 p.m.) for 2 days. During this period the rats were allowed to take CE-2 diet (Clea Japan, Inc.) and water ad libitum. In the morning on the 3rd day (9 a.m.) the rats were killed (decapitation and venesection), and immediately the sciatic nerves were isolated, from which sorbitol was extracted according to the method of M. J. Peterson et al. described in Metabolism, 28, 456 (1979) and the sorbitol level was determined by the enzymatic method of P.S. Clements et al. in Science, 166, 1007 (1969).

washed rat platelets = experiment: Inhibitory action on platelet aggregation (washed rat platelets); type: cell-based, rat (Spraque-Dawley); conditions: for inhibition at 300 µM: 3 × 10^-4 M; for inhibition at 100 µM: 10^-4 M
Experimental: 3. Inhibitory action on platelet aggregation
Effect of 3,4-dihydro-2,8-diisopropyl-3-thioxo-2H-1,4-benzoxazine-4-acetic acid on platelet aggregation was examined using washed rat platelets.
Platelet rich plasma (PRP) was prepared by centrifuging the blood at 150 xg for 15 min at room temperature. To prepare washed platelets, the PRP was centrifuged at 1500 xg for 10 min and the precipitated platelets were resuspended in Tyrode's solution. The number of platelets used was 7×10^5 cells/mm^3. Platelet aggregation was measured by the turbidmetric method using an aggregometer (Nikko Bioscience, Model PAR-4M, Tokyo). The test compound dissolved in 10 μl of water was added to 250 μl of washed platelet suspension and incubated at 37° C. for 3 min before 10 μl of aggregating agents ([…] of collagen, Nikko Bioscience or 10 μM of ADP, Shigma, St. Louis, Mo., at the final concentration) was added.

[3] = Acute toxicity in rats (oral); set-up: species or system rat (Wistar); conditions: in vivo, rat, mortality during 14 days
Source text: (§1) Acute toxicity of 3,4-dihydro-2,8-diisopropyl-3-thioxo-2H-1,4-benzoxazine-4-acetic acid was examined in mice and rats.
(§2) The various doses of the test compound suspended in 5% gum arabic solution were orally administered to male ICR mice (4 weeks old) and male Wistar rats (5 weeks old), and then mortality was observed during 14 days. Each group consisted of 5 animals.

[4] = Acute toxicity in mice (oral); set-up: species or system mouse (ICR); conditions: in vivo, mouse, mortality during 14 days
Source text: as §1, §2

[5] = 30 mg/kg orally twice a day for 2 days
[6] = 50 mg/kg orally twice a day for 2 days
[7] = Rattus norvegicus, Platelet, read-out: percent inhibition of aggregation, inducer ADP, Mean ± SD (N = 3)
[8] = Rattus norvegicus, Platelet, inducer ADP, Mean ± SD (N = 3), read-out: percent inhibition of aggregation
[9] = Rattus norvegicus, Platelet, inducer collagen, Mean ± SD (N = 3), read-out: percent inhibition of aggregation

Structure (SMILES)	inhibition at 1 µM [1]	inhibition at 0.1 µM [1]	sorbitol accumulation [2, 5]	sorbitol accumulation [2, 6]	further results
CC(C)C1Oc2c(F)cccc2N(CC(=O)O)C1=S (stereo not drawn) [Example 4, 8-fluoro-3,4-dihydro-2-isopropyl-3-thioxo-2H-1,4-benzoxazine-4-acetic acid]	45.6%	3.8%	45%	14%	
COc1ccc2c(c1)OC(C(C)C)C(=S)N2CC(=O)O (stereo not drawn) [Example 7, 3,4-dihydro-2-isopropyl-7-methoxy-3-thioxo-2H-1,4-benzoxazine-4-acetic acid]	50%	14.9%	27%		
O=C(O)CN1C(=S)COc2ccc(F)cc21 [Control A, 6fluoro-3,4-dihydro-3-thioxo-2H--1,4benzoxazine-4-acetic acid, reference compound]	50.8%	25%	73%	60%	
CC(C)C1Oc2cc(F)ccc2N(CC(=O)O)C1=S (stereo not drawn) [Example 17, 7-fluoro-3,4-dihydro-2isopropyl3-thioxo-2H-1,4-benzoxazine-4-acetic acid]	45.7%	2.6%	62%		
CC(C)C1Oc2c(cccc2C(C)(C)C)N(CC(=O)O)C1=S (stereo not drawn) [Example 19, 8-t-butyl-3,4-dihydro-2-isopropyl-3-thioxo-2H-1,4-benzoxazine-4-acetic acid]	39.3%	8%	15%		
CC(C)C1Oc2ccccc2N(CC(=O)O)C1=S (stereo not drawn) [Example 1, 3,4-dihydro-2-isopropyl-3-thioxo-2H-1,4-benzoxazine-4-acetic acid]	46.7%	19.1%	51%	18%	
Cc1cccc2c1OC(C(C)C)C(=S)N2CC(=O)O (stereo not drawn) [Example 6, 3,4-dihydro-2-isopropyl-8-methyl-3-thioxo2H-1,4-benzoxazine-4-acetic acid]	48.2%	9.4%	33%	16%	
CC(C)C1Oc2ccc(F)cc2N(CC(=O)O)C1=S (stereo not drawn) [Example 2, 6-fluoro-3,4-dihydro-2-isopropyl-3-thioxo-2H-1,4-benzoxazine-4-acetic acid]	43.9%	8.7%	33%	12%	inhibition of sorbitol accumulation in vivo compared with control compounds (in words) [2]: The difference is particularly evident
CC1Sc2ccccc2N(CC(=O)O)C1=S (stereo not drawn) [Control C, 3,4dihydro-2-methyl-3-thioxo-2H--1,4benzothiazine-4-acetic acid, reference compound]	48.7%	19.6%		71%	
CC(C)C1Oc2c(C3CCCCC3)cccc2N(CC(=O)O)C1=S (stereo not drawn) [Example 20, 8-cyclohexyl-3,4-dihydro-2-isopropyl-3-thioxo2H-1,4-benzoxazine-4-acetic acid]	38.4%	4.6%	25%		
O=C(O)CN1C(=S)CSc2ccccc21 [Control B, 3,4dihydro-3-thioxo-2H--1,4benzothiazine-4-acetic acid, reference compound]	43.1%	15.7%		78%	
CCOc1cccc2c1OC(C(C)C)C(=S)N2CC(=O)O (stereo not drawn) [Example 12, 8-ethoxy-3,4-dihydro-2isopropyl3-thioxo-2H-1,4-benzoxazine-4-acetic acid]	43%	19.2%	58%		
COc1cccc2c1OC(C(C)C)C(=S)N2CC(=O)O (stereo not drawn) [Example 5, 3,4-dihydro-2-isopropyl-8-methoxy-3-thioxo-2H-1,4-benzoxazine-4-acetic acid]	48.1%	17.3%	29%	11%	
CCc1cccc2c1OC(C(C)C)C(=S)N2CC(=O)O (stereo not drawn) [Example 13, 8-ethyl-3,4-dihydro-2-isopropyl-3-thioxo-2H-1,4-benzoxazine-4-acetic acid]	46.8%	14.9%	35%		
CC(C)C1Sc2ccccc2N(CC(=O)O)C1=S (stereo not drawn) [Example 9, 3,4-dihydro-2-isopropyl-3-thioxo-2H-1,4-benzothiazine-4-acetic acid]	46.4%	20%	60%	46%	inhibition of sorbitol accumulation in vivo compared with control compounds (in words) [2]: The difference is particularly evident
COc1ccc2c(c1)c(CC(=O)O)c(C)n2C(=O)c1ccc(Cl)cc1 [Indomethacin, reference compound]					inhibition at 300 µM (washed rat platelets; [7]): 97.2 ± 6.4%; inhibition at 100 µM (washed rat platelets; [7]): 102 ± 8.4%; inhibition at 100 µM (washed rat platelets; Rattus norvegicus, Platelet, read-out: percent inhibition of aggregation, inducer collagen, Mean ± SD (N = 3)): 28.5 ± 1.9%
CC(C)C1Oc2c(Cl)cccc2N(CC(=O)O)C1=S (stereo not drawn) [Example 3, 8-chloro-3,4-dihydro-2-isopropyl-3-thioxo-2H-1,4-benzoxazine-4-acetic acid]	48.9%	8.9%		23%	
CCC(C)C1Sc2ccccc2N(CC(=O)O)C1=S (stereo not drawn) [Example 11, 3,4-dihydro-2-(1-methylpropyl)-3-thioxo-2H-1,4-benzothiazine-4-acetic acid]	47.1%	15.2%	67%	38%	inhibition of sorbitol accumulation in vivo compared with control compounds (in words) [2]: The difference is particularly evident
CC(C)c1cccc2c1OC(C(C)C)C(=S)N2CC(=O)O (stereo not drawn) [Example 8, 3,4-dihydro-2,8-diisopropyl-3-thioxo-2H-1,4-benzoxazine-4-acetic acid]	50.2%	9.1%	30%		inhibitory action compared with indomethacin (in words) (washed rat platelets; ADP-induced aggregation): more potent than that of indomethacin; inhibition at 300 µM (washed rat platelets; [8]): 42 ± 7.1%; inhibition at 100 µM (washed rat platelets; [8]): 90 ± 6%; inhibition at 300 µM (washed rat platelets; [9]): 24.1 ± 3.4%; inhibition at 30 µM (washed rat platelets; Rattus norvegicus, Platelet, inducer collagen, 3 × 10^-5 M, Mean ± SD (N = 3), read-out: percent inhibition of aggregation): 74.5 ± 5.5%; inhibition at 60 µM (washed rat platelets; Rattus norvegicus, Platelet, inducer collagen, 6 × 10^-5 M, Mean ± SD (N = 3), read-out: percent inhibition of aggregation): 46.5 ± 1.3%; inhibition at 100 µM (washed rat platelets; [9]): 31.8 ± 0.9%; inhibition of aggregation of washed platelets (in words) (washed rat platelets; induced by either collagen or ADP): inhibited aggregation of washed platelets induced by either collagen or ADP in a dose related manner; LD50 at 336 h [3]: 2830 mg/kg; LD50 at 336 h [4]: 1880 mg/kg

Source: patent publication US4771050A, “Thiolactam-n-acetic acid derivatives” (Takeda Chemical Industries, Ltd., priority 1986, dated 1988)
